Experimental data reported in US10441550B2, “Nanofibrous materials as drug, protein, or genetic release vehicles” (BioSurfaces, Inc., priority 2005, dated 2019).

Legend:
[1] = organism not given; cited from earlier work
Candida albicans = experiment: Turbidity assay (broth macrodilution, NCCLS M27-A); type: cell-based; conditions: 40 micrograms Diflucan in solution; activity decreases as inoculum increases
Experimental: Candida albicans was purchased from ATCC.
A broth macrodilution assay was performed based on the NCCLS M27-A protocol. The stock fungal inoculum concentration was determined via backplating a set volume of the diluted fungus broth onto Trypticase Soy Agar plates. The number of colony forming units (cfu) grown per plate was then counted and extrapolated to determine the starting Candida concentration.
The stock fungus solution was then diluted to 10^6, 10^5 and 10^4 cfu/ml. After incubating the individual test segments in 2 ml of the fungus solutions for 24 hours at 30° C., the optical density of the broth solutions was measured at 492 nm.

| SMILES | MIC50 [1] [micrograms per ml] | antifungal activity (Candida albicans) |
| --- | --- | --- |
| O=C(O)c1cn(C2CC2)c2cc(N3CCNCC3)c(F)cc2c1=O [Cipro, Ciprofloxacin] | 0.26 | – |
| OC(Cn1cncn1)(Cn1cncn1)c1ccc(F)cc1F [Diflucan, Fluconazole] | – | excellent antifungal activity |
